From ChEMBL document CHEMBL4834393, “Building a Chemical Toolbox for Human Pregnane X Receptor Research: Discovery of Agonists, Inverse Agonists, and Antagonists Among Analogs Based on the Unique Chemical Scaffold of SPA70” (J Med Chem, 2021)
Active and inactive are the calls of the source. No cut-off for these calls is given here.

Experiments:
[1] = biological target: T1, Nuclear receptor subfamily 1 group I member 2 (Homo sapiens, UniProt O75469); test: Agonist activity at human PXR expressed in HepG2 cells co-expressing luciferase gene under control of CYP3A4 promoter incubated for 24 hrs by luciferase reporter assay
T1 sequence (O75469 whole entry): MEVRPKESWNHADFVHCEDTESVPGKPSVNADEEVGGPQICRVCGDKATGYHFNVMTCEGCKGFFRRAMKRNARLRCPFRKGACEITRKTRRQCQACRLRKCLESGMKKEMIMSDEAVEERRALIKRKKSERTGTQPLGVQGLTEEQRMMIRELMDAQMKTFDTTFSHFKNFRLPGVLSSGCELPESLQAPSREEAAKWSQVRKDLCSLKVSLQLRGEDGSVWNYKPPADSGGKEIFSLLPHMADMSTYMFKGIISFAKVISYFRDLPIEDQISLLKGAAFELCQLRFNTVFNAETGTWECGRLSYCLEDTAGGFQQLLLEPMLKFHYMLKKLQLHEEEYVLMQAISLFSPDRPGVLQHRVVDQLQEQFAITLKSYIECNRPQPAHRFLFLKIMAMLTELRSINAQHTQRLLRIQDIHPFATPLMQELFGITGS

PXR (NR1I2) [2] = biological target: T2, PXR (NR1I2) (Homo sapiens, UniProt O75469); test: Inhibition of human PXR expressed in HepG2 cells co-expressing luciferase gene under control of CYP3A4 promoter at 10 uM incubated for 24 hrs in presence of 5 uM rifampicin by luciferase reporter assay relative to control; format: cell-based
T2 sequence (O75469 whole entry): T1 sequence (O75469 whole entry)

[3] = biological target: T1, Nuclear receptor subfamily 1 group I member 2; test: Displacement of BODIPY FL vindoline from GST-tagged human PXR LBD incubated for 60 mins by TR-FRET assay
PXR (NR1I2) [4] = biological target: T2, PXR (NR1I2); test: Displacement of BODIPY FL vindoline from GST-tagged human PXR LBD at 10 uM incubated for 60 mins by TR-FRET assay relative to control; details: GST-tagged human PXR LBD (recombinant protein), probe BODIPY FL vindoline
[5] = biological target: T1, Nuclear receptor subfamily 1 group I member 2; test: Antagonist activity at human PXR expressed in HepG2 cells co-expressing luciferase gene under control of CYP3A4 promoter incubated for 24 hrs in presence of 5 uM rifampicin by luciferase reporter assay
PXR (NR1I2) [6] = biological target: T2, PXR (NR1I2); test: Agonist activity at human PXR expressed in HepG2 cells co-expressing luciferase gene under control of CYP3A4 promoter at 10 uM incubated for 24 hrs by luciferase reporter assay relative to control
[7] = biological target: T3, Vitamin D3 receptor (Homo sapiens) (UniProt P11473); test: Agonist activity at human VDR expressed in HEK293T cells by luciferase reporter assay; format: cell-based
T3 sequence (whole entry): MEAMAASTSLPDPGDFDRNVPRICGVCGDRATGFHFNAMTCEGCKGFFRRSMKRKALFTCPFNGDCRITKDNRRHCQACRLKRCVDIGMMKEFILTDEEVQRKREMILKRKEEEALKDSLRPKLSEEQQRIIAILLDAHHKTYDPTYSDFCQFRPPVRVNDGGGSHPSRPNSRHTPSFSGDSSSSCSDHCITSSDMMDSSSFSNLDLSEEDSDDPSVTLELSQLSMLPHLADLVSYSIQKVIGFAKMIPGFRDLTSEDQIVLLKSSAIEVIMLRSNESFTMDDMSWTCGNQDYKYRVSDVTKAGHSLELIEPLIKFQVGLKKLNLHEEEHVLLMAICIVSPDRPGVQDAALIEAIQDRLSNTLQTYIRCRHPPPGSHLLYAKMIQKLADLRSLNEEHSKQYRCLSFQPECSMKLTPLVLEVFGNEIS

[8] = biological target: T3, Vitamin D3 receptor (Homo sapiens); test: Antagonist activity at human VDR expressed in HEK293T cells in presence of 1alpha,25-dihydroxyvitamin D3 by luciferase reporter assay; format: cell-based
[9] = biological target: T4, Bile acid receptor (Homo sapiens) (UniProt Q96RI1); test: Agonist activity at human FXR expressed in HEK293T cells by luciferase reporter assay; format: cell-based
T4 sequence (whole entry): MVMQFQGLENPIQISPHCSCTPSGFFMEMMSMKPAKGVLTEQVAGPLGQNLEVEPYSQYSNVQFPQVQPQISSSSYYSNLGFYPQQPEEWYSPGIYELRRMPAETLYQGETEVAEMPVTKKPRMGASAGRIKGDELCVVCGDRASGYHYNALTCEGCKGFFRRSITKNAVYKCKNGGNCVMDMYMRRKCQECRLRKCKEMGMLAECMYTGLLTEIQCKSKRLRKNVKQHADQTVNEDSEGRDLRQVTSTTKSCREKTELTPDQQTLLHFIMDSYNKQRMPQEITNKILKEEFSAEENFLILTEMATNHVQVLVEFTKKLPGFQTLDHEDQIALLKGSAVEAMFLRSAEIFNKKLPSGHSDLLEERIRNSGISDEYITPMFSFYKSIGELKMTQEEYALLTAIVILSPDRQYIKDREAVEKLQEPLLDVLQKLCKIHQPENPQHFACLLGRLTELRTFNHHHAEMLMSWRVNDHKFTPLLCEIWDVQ

[10] = biological target: T5, Nuclear receptor subfamily 1 group I member 2 (Mus musculus, UniProt O54915); test: Agonist activity at mouse PXR by luciferase reporter assay; format: ADME
T5 sequence (O54915 whole entry): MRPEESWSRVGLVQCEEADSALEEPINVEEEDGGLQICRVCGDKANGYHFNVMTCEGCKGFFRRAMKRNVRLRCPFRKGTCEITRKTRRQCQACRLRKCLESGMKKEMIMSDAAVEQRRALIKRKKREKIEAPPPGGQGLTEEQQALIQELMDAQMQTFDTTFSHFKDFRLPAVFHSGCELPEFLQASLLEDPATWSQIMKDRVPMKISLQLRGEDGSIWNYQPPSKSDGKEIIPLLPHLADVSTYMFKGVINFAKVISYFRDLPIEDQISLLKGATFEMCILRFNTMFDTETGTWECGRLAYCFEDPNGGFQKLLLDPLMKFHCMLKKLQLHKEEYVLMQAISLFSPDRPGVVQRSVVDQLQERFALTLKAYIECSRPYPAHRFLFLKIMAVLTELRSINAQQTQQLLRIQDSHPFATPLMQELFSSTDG

[11] = biological target: T4, Bile acid receptor (Homo sapiens); test: Antagonist activity at human FXR expressed in HEK293T cells in presence of GW4064 by luciferase reporter assay; format: cell-based
[12] = biological target: T5, Nuclear receptor subfamily 1 group I member 2; test: Antagonist activity at mouse PXR in presence of PCN by luciferase reporter assay
HepG2 = test: Cytotoxicity against human HepG2 cells co-expressing luciferase gene under control of CYP3A4 promoter measured after 24 hrs by CellTiter-Glo luminescent cell viability assay; format: ADME, cell-based; details: for Activity: human, hepg2, 24 h, time 24 hrs
[13] = test system: constitutive androstane receptor, NR1I3 (Homo sapiens); test: Agonist activity at human CAR by luciferase reporter assay

Structure (SMILES)	EC50 [1] [µM]	inhibition at 24 h, 10 µM (PXR (NR1I2) [2]) [%]	IC50 [3] [µM]	inhibition at 1 h, 10 µM (PXR (NR1I2) [4]) [%]	IC50 [5] [µM]	activity at 24 h, 10 µM (PXR (NR1I2) [6]) [%]	Activity [7]	Activity [8]	Activity [9]	Activity [10]	Activity [11]	Activity [12]	Activity [13]	Activity (HepG2)	IC50 (HepG2; Homo sapiens, HepG2, 24 h) [µM]
COC(=O)c1cc(OC)c(-n2nnc(S(=O)(=O)c3ccc(C(C)(C)C)cc3)c2C)cc1C	1.6	32	1.5	64	6	75	–	–	–	–	–	–	–	–	–
COc1ccc(Cl)cc1-n1nnc(S(=O)(=O)c2ccc(C(C)(C)C)cc2)c1C#N	0.08	–	0.061	90	–	105	inactive	inactive	inactive	Not Active	inactive	Not Active	inactive	Non-Toxic	–
COc1ccc(OC)c(-n2nnc(S(=O)(=O)c3ccc(C(C)(C)C)cc3)c2C#N)c1	0.26	38	0.3	97	2.4	88	–	–	–	–	–	–	–	–	–
CCc1c(S(=O)(=O)c2ccc(C(C)(C)C)cc2)nnn1-c1cc(OC)ccc1OC	–	–	–	–	–	–	–	–	–	Not Active	–	Not Active	inactive	Non-Toxic	–
COc1cc(C#N)c(Cl)cc1-n1nnc(S(=O)(=O)c2ccc(C(C)(C)C)cc2)c1C	1	44	0.6	40	3.4	49	–	–	–	–	–	–	–	–	–
COc1ccc(OC)c(-n2cc(S(=O)(=O)c3ccc(C(C)(C)C)cc3)nn2)c1	1.4	71	1.4	98	3.4	35	–	–	–	–	–	–	–	–	–
COc1cc(C#N)c(C)cc1-n1nnc(S(=O)(=O)c2ccc(C(C)(C)C)cc2)c1C	1.6	33	1.07	48	4	58	–	–	–	–	–	–	–	–	–
COc1ccc(C)cc1-n1cc(S(=O)(=O)c2ccc(C(C)(C)C)cc2)nn1	0.6	44	0.5	98	5	69	–	–	–	–	–	–	–	–	–
COc1ccc(Cl)cc1-n1nnc(S(=O)(=O)c2ccc(C(C)(C)C)cc2)c1N	0.11	78	0.5	93	4.4	42	–	–	–	–	–	–	–	–	–
COc1cc(C(C)=O)c(C)cc1-n1nnc(S(=O)(=O)c2ccc(C(C)(C)C)cc2)c1C	0.4	111	1.4	80	9	77	–	–	–	–	–	–	–	–	16.5
COC(=O)c1cc(OC)c(-n2nnc(S(=O)(=O)c3ccc(C(C)(C)C)cc3)c2C)cc1Cl	1.9	51	0.7	35	10	62	–	–	–	–	–	–	–	–	–
COc1ccc(OC)c(-n2nnc(S(=O)(=O)c3ccc(C(C)(C)C)cc3)c2N)c1	0.43	52	0.18	85	1.7	53	–	–	–	–	–	–	–	–	–

Further lines, with some results ahead:

EC50 [1] [µM]	inhibition at 24 h, 10 µM (PXR (NR1I2) [2]) [%]	IC50 [3] [µM]	inhibition at 1 h, 10 µM (PXR (NR1I2) [4]) [%]	IC50 [5] [µM]	activity at 24 h, 10 µM (PXR (NR1I2) [6]) [%]	Activity [7]	Activity [8]	Activity [9]	Activity [10]	Activity [11]	Activity [12]	Activity [13]	Structure (SMILES)	Activity (HepG2)	IC50 (HepG2; Homo sapiens, HepG2, 24 h) [µM]
1	64	1.2	87	2.3	33	–	–	–	–	–	–	–	COc1cc(C)c(Cl)cc1-n1nnc(S(=O)(=O)c2ccc(C(C)(C)C)cc2)c1C	–	–
0.81	64	1.4	95	2	82	–	–	–	–	–	–	–	COc1ccc(CO)cc1-n1nnc(S(=O)(=O)c2ccc(C(C)(C)C)cc2)c1C	–	–
0.8	53	0.53	103	1	56	–	–	–	–	–	–	–	COc1ccccc1-n1nnc(S(=O)(=O)c2ccc(C(C)(C)C)cc2)c1C	–	–
1	72	4	87	2	24	–	–	–	–	–	–	–	COc1cc(-n2nnc(S(=O)(=O)c3ccc(C(C)(C)C)cc3)c2C)c(OC)cc1F	–	–
0.24	70	0.4	80	0.7	37	inactive	inactive	inactive	–	inactive	Not Active	inactive	COc1ccc(F)cc1-n1nnc(S(=O)(=O)c2ccc(C(C)(C)C)cc2)c1C	Non-Toxic	–
0.8	57	0.7	71	2	51	–	–	–	–	–	–	–	COc1cc(Cl)c(C)cc1-n1nnc(S(=O)(=O)c2ccc(C(C)(C)C)cc2)c1C	–	–
